# Measurements reported in US20150056205A1, “STEROID SPARING AGENTS AND METHODS OF USING SAME” (BIOGEN IDEC MA INC., priority 2004, published 2015).
# Experiments:
# [1] = test system: pregnant cynomolgus monkeys; experiment: follow-up reproductive toxicity study; type: in vivo, cynomolgus monkey; details: two in the control
# Procedure: (§1) In mice, there is evidence that α4 integrin and VCAM-1 play a role in placental and cardiac development, and they may also play a wider role in fetal development. There is, therefore, a risk of an abortifacient effect or teratogenicity if α4 integrin is blocked by natalizumab. A preliminary reproductive toxicity study exposed groups of five pregnant cynomolgus monkeys to repeated intravenous doses of 0.06, 0.3, or 30 mg/kg natalizumab. One of five pregnant females in the 30 mg/kg group aborted at Day 31 of gestation after receiving five doses of natalizumab. Because the overall rate of abortion fell within the rate of spontaneous abortion in this species, the event was not believed to be related to natalizumab. An ongoing follow-up reproductive toxicity study has exposed groups of 10 to 15 pregnant cynomolgus monkeys to repeated intravenous doses of 3, 10, or 30 mg/kg. Embryo deaths have occurred at similar rates in all treatment groups: two in the control, one in the 3 mg/kg, two in the 10 mg/kg and two in the 30 mg/kg groups respectively. As a precaution, women of childbearing potential must utilize effective contraception throughout the duration of the study and for at least 3 months after the last infusion of study drug, and must have a negative pregnancy test at the time of each natalizumab dosing.
# [2] = test system: subjects diagnosed with chronic active Crohn's disease; experiment: placebo-controlled single infusion study in chronic active Crohn's disease; type: in vivo
# Procedure: Earlier studies in Crohn's disease and ulcerative colitis are summarized below. One study was a randomized, double-blind, placebo-controlled, safety, tolerability, and efficacy study of a single infusion of intravenous 3 mg/kg natalizumab in male and female subjects diagnosed with chronic active Crohn's disease. Thirty subjects were enrolled; 18 were treated with natalizumab (3 mg/kg) and 12 with placebo.
# primates = details: in vivo
# Text: The inflammation was characterized by increased numbers of lymphocytes and plasma cells within the lamina propia with occasional crypt abscesses.
# [3] = test system: subjects with active ulcerative colitis; experiment: open-label single infusion study in active ulcerative colitis; type: in vivo; details: for mean PTAI score: 9.7 at Week 0
# Procedure: Another earlier study was an open-label safety, tolerability, and efficacy study of a single infusion of 3 mg/kg intravenous natalizumab in male and female subjects with active ulcerative colitis.
# [4] = test system: subjects with Crohn's disease; experiment: Phase III maintenance of response and remission study in Crohn's disease (Example 9, second study); type: in vivo, human
# Procedure: A double-blind, placebo-controlled study of the efficacy, safety, and tolerability of intravenous Tysabri (natalizumab, 300 mg monthly) in maintaining clinical response and remission in patients with Crohn's Disease (CD) was performed. The objectives were to compare the ability of natalizumab versus placebo to maintain a clinical response in subjects with CD, to compare the ability of natalizumab versus placebo to maintain a clinical remission in subjects with CD, to compare the effects of natalizumab versus placebo on quality of life as measured by the Inflammatory Bowel Disease Questionnaire (IBDQ), and to compare the ability of natalizumab versus placebo to allow subjects to achieve withdrawal of oral steroids.
# A Phase III, international, multicenter, randomized, double-blind, placebo-controlled, parallel-group study of subjects with previously active Crohn's disease (CD) (defined as moderately to severely active, CDAI≧220, <450) who have responded to treatment at Week 10 and maintained that response out to Week 12 in a first study (defined as a ≧70 point decrease in baseline CDAI) and whose disease is mildly active (defined as a CDAI score of <220) was undertaken.
# Within this group there was a sub-population who had achieved remission (defined as a CDAI score of <150) at Week 10 of the first study. […] Subjects receiving concomitant medications for their CD were permitted to enroll providing that doses remained stable throughout their participation in the first study. All concomitant medications for CD remained stable for the duration of the 12-month treatment phase (up to Month 15) with the exception of oral steroids which were reduced according to a fixed algorithm). At the time this application was filed, only 9 months of data was available.
# Natalizumab was administered 300 mg monthly for 12 infusions. The placebo was administered monthly for 12 infusions. Subjects were stratified according to their disease status (remission versus no remission, i.e., a CDAI<150 or ≧150), concomitant use of oral steroids and concomitant use of immunosuppressants.
# Once randomized, subjects received their first infusion. Thereafter, they returned to the clinic on a monthly basis (where 1 month is defined as a 4-week period) for assessment and infusion. Introduction of any new medication for CD or a dose change to an existing concomitant medication for CD (with the exception of oral steroids withdrawn according to the fixed algorithm) […] unless deemed necessary for purposes of rescue intervention. Once rescued, such a subject was considered a treatment failure.
# Eligible subjects at Week 10 in the first study were consented and enrolled into the second study, in order to allow subjects taking concomitant oral steroids to begin a steroid taper. Subjects who continued to meet the eligibility criteria at Week 12/Month 3, i.e., in time for their next, monthly infusion, were re-randomized and entered the treatment phase which will last up to 12 months in duration (i.e., up to Month 15). Subjects were male or female, eighteen years of age or older.
# All subjects receiving oral steroids were required to undergo a taper immediately upon entry into the second study using the following algorithm. Subjects on doses equivalent to >10 mg of prednisolone will begin their taper at a rate of 5 mg every 7 days until they reach a dose of 10 mg. Subjects on doses equivalent to 10 mg of prednisolone were tapered at a rate of 2.5 mg every 7 days until they are completely withdrawn. Subjects taking budesonide were tapered at a rate of 3 mg every 3 weeks.
# The ability of natalizumab to maintain mildly active disease (defined as a CDAI score of <220 and no use of rescue intervention) and remission (defined as a CDAI score of <150 and no use of rescue intervention) in subjects with CD was assessed. […]
# guinea pig EAE = experiment: guinea pig Experimental Allergic Encephalitis (EAE) model; type: in vivo
# Procedure: The initial dose of natalizumab selected for clinical evaluation was based on non-clinical studies in the guinea pig Experimental Allergic Encephalitis (EAE) model. […] A single dose of 3 mg/kg appeared to provide serum concentrations of natalizumab associated with α4 integrin receptor blockade for up to approximately 3 weeks, and 6 mg/kg for about 6 weeks.
# [5] = test system: pregnant cynomolgus monkeys; experiment: preliminary reproductive toxicity study; type: in vivo; details: 30 mg/kg group, repeated intravenous doses, Day 31 of gestation after five doses
# Procedure: as §1
substance,measurement,setting,value
natalizumab,embryo deaths,[1]; 3 mg/kg repeated intravenous doses,one
same,embryo deaths,[1]; 10 mg/kg repeated intravenous doses,two
same,embryo deaths,[1]; 30 mg/kg repeated intravenous doses,two
same,mean CDAI scores compared to mean baseline,"[2]; 2 and 4 weeks post-treatment, single 3 mg/kg",significantly decreased
same,subjects requiring rescue therapy,"[2]; Week 2 post-treatment, single 3 mg/kg, placebo 33%",11%
same,subjects withdrawn because of an adverse event,[2]; single 3 mg/kg,No subjects
same,subjects reporting one serious adverse event,"[2]; single 3 mg/kg, 18 treated",Six
same,safety and tolerability,"[2]; single intravenous dose of 3 mg/kg, subjects with CD",safe and well tolerated
same,subjects in clinical remission (CDAI<150),"[2]; two weeks after single 3 mg/kg intravenous infusion, placebo 8%",39%
same,"treated animals with minimal to mild lymphoplasmacytic inflammation of the mucosa of the cecum, colon, and/or rectum",primates,about half
same,mean PTAI score,[3]; 1 week post-treatment,6.9
same,subjects with good clinical response (PTAI score ≦5),"[3]; 2 and 4 weeks after single 3 mg/kg infusion, ten subjects",50%
same,mean PTAI score,[3]; 2 weeks post-treatment,5.7
same,mean PTAI score,[3]; 4 weeks post-treatment,4.9
same,subjects who received no rescue medication,[3]; between Weeks 0 and 4,Seventy percent
same,adverse events considered related to study drug,[3]; of the 30 adverse events reported,3
same,subjects reporting a serious adverse event,"[3]; ten subjects, single 3 mg/kg",Three
same,patients of the remission population who maintained a response (remission),"[4]; after 9 months, natalizumab remission population at three months, placebo 25.8%",43.8%
same,patients who maintained a response,"[4]; after 9 months, natalizumab responder population at three months, placebo 28.8%",61.3%
same,"Remission and not taking steroids, number (%) of subjects","[4]; month 9, of those who took steroids at first study baseline, 300 mg monthly, placebo 17 (22%)",31 (46%)
same,"Not taking steroids, number (%) of subjects","[4]; month 9, of those who took steroids at first study baseline, 300 mg monthly, placebo 19 (25%)",37 (55%)
same,serious adverse events (SAEs),[4]; placebo 8%,7%
same,tapering off steroids,[4]; second study,enabled subjects to be successfully tapered off steroids
same,signs and symptoms of EAE,guinea pig EAE; dose of 3 mg/kg,significant delay in onset and a reversal of the signs and symptoms of EAE
same,signs and symptoms of EAE,guinea pig EAE; lower doses than 3 mg/kg,not effective
same,pregnant females that aborted,[5],One of five
